Legend:
Assay in all cases: Kinase assay, binding constants (Kd), kinase-tagged T7 phage, qPCR
FGFR1 = FGFR1 (Homo sapiens (Human), UniProt P11362)
Experimental: (§1) Kinase-tagged T7 phage strains were prepared in an E. coli host derived from the BL21 strain. E. coli were grown to log-phase and infected with T7 phage and incubated with shaking at 32° C. until lysis. The lysates were centrifuged and filtered to remove cell debris. Streptavidin-coated magnetic beads were treated with biotinylated small molecule ligands for 30 minutes at room temperature to generate affinity resins for kinase assays. The liganded beads were blocked with excess biotin and washed with blocking buffer SeaBlock (Pierce), […], 1 mM DTT to remove unbound ligand and to reduce non-specific binding.
(§2) Test compounds were prepared as 111λ stocks in 10000 DMS0. Kds were determined using an 11-point 3-fold compound dilution series with three DMSO control points. […] The compounds were then diluted directly into the assays such that the final concentration of DMSO was 0.9%. All reactions performed in polypropylene 384-well plate. Each was a final volume of 0.02 ml. […] The beads were then re-suspended in elution buffer (1×PBS, 0.05% Tween […] non-biotinylated affinity ligand) and incubated at room temperature with shaking for 30 minutes. The kinase concentration in the eluates was measured by qPCR.
(§3) Binding constants were calculated with a standard dose-response curve using the Hill equation: […]
(§4) The Hill Slope was set to −1. Curves were fitted using a non-linear least square fit with the Levenberg-Marquardt algorithm.

FGFR4 = FGFR4 (Homo sapiens (Human), UniProt P22455)
Sequence of FGFR4 (P22455 22-802): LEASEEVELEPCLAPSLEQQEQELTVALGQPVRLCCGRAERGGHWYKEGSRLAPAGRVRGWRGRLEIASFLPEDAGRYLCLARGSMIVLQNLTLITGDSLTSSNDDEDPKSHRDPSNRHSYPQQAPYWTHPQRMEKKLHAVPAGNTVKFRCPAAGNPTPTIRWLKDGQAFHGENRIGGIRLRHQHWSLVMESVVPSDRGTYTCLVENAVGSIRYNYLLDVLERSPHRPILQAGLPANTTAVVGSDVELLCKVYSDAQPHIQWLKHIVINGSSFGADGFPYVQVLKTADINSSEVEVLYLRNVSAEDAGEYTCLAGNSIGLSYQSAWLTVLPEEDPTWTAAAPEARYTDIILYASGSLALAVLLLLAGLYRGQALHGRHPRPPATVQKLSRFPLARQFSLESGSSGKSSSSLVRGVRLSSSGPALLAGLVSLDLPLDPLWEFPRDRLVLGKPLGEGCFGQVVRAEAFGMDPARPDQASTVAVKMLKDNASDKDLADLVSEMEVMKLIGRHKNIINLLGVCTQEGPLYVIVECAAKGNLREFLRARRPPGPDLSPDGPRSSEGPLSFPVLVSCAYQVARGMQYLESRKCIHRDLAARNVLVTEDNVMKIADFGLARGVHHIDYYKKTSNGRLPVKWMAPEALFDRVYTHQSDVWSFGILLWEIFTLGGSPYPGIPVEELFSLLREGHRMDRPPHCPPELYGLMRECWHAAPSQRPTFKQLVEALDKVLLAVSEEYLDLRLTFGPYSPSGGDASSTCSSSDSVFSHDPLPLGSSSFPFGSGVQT
Experimental: as §1, §2, §3, §4

FGFR3 = FGFR3 (Homo sapiens (Human), UniProt P22607)
Sequence of FGFR3 (P22607 23-806): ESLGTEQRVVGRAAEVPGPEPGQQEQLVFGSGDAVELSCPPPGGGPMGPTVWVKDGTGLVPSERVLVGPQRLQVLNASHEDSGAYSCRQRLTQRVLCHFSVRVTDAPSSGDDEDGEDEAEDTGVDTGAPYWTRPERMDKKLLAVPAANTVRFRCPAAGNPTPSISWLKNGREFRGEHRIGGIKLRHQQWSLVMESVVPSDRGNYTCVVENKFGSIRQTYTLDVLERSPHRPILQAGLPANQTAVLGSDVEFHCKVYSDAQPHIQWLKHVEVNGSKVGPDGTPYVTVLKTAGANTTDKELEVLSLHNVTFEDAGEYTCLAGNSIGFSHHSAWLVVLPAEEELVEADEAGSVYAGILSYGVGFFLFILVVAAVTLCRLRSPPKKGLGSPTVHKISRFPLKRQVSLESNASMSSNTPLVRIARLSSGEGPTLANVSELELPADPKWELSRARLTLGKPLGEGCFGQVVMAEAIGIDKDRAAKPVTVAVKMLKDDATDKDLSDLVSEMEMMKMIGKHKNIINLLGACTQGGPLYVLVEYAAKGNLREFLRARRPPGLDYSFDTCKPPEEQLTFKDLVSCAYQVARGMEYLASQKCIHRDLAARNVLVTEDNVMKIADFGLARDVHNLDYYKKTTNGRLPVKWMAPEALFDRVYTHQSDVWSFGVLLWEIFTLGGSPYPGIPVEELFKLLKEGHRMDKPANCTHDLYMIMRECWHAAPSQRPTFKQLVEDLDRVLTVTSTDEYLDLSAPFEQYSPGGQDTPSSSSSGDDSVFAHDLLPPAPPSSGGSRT
Experimental: as §1, §2, §3, §4

FGFR3 (V555M) = FGFR3 (V555M) (Homo sapiens (Human), UniProt P22607, V555M); conditions: V555M mutant
Sequence of FGFR3 (V555M) (P22607 23-806 V555M): as the sequence (P22607 23-806) above, with V533M counted along it
Experimental: as §1, §2, §3, §4

FGFR2 = FGFR2 (Homo sapiens (Human), UniProt P21802)
Sequence of FGFR2 (P21802 22-821): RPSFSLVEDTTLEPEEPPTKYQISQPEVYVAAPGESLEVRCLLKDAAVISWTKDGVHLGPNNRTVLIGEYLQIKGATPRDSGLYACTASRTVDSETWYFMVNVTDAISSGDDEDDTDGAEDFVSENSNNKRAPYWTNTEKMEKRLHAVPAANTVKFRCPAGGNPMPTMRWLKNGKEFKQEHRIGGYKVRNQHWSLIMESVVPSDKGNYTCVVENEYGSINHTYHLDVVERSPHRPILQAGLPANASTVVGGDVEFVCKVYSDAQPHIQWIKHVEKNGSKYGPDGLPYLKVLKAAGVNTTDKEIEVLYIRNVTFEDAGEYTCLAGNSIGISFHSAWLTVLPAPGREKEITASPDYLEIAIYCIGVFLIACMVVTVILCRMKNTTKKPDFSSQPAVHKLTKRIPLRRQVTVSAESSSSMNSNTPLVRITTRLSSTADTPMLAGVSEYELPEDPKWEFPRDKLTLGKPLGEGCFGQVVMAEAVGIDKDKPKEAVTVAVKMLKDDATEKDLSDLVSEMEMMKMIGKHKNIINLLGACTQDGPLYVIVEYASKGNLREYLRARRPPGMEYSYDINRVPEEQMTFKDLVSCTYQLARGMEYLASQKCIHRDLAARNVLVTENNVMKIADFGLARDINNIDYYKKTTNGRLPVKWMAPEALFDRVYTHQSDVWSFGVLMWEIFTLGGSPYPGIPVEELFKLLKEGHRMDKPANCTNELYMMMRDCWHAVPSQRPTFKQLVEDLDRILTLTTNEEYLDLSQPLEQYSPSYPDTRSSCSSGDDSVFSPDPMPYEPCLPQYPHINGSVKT
Experimental: as §1, §2, §3, §4

Sequence of FGFR1 (P11362 22-822): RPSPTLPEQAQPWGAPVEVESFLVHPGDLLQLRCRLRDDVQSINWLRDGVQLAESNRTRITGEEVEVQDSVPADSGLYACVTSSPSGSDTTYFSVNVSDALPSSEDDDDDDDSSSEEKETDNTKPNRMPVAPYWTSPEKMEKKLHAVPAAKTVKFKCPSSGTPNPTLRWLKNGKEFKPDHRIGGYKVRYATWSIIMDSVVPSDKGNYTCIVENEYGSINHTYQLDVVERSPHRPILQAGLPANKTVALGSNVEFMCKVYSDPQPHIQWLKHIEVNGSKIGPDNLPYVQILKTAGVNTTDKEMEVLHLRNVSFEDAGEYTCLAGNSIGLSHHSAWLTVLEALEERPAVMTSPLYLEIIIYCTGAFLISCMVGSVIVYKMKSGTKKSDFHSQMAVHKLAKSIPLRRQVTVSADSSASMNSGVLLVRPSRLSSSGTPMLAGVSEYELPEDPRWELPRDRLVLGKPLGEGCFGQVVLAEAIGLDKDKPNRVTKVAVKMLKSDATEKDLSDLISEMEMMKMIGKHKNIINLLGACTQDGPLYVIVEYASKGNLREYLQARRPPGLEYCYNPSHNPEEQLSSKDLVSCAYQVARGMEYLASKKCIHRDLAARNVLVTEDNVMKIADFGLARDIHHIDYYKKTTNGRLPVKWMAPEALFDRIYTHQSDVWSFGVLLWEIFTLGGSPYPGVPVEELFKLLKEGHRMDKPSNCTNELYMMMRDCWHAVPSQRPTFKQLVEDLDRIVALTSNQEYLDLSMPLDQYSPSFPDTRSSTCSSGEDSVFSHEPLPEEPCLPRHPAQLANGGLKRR

Row | Compound | Kd (FGFR1) [nM] | Kd (FGFR4) [nM] | Kd (FGFR3) [nM] | Kd (FGFR3 (V555M)) [nM] | Kd (FGFR2) [nM]
1 | CCOC(=O)N1CC2(C1)CN(c1ncc(-c3n[nH]c4ccc(O[C@H](C)c5c(Cl)cnc(C)c5Cl)cc34)cn1)C2 [Example 185, ethyl 6-[5-[5-[(1R)-1-(3,5-dichloro-2-methyl-4-pyridyl)ethoxy]-1H-indazol-3-yl]pyrimidin-2-yl]-2,6-diazaspiro[3.3]heptane-2-carboxylate] | > 300 | 1 to 20 | 20 to 100 | 1 to 20 | 100 to 300
2 | CCS(=O)(=O)N1CCCC2(CN(c3ccc(-c4n[nH]c5ccc(O[C@H](C)c6c(C)cnnc6C)cc45)cn3)C2)C1 [Example 186, 5-[(1R)-1-(3,5-dimethylpyridazin-4-yl)ethoxy]-3-[6-(8-ethylsulfonyl-2,8-diazaspiro[3.5]nonan-2-yl)-3-pyridyl]-1H-indazole] | 100 to 300 | 20 to 100 | 1 to 20 | 1 to 20 | 20 to 100
3 | COC(=O)N1CCCC2(C1)CN(c1ccc(-c3n[nH]c4ccc(O[C@H](C)c5c(C)cnnc5C)cc34)cn1)C2 [Example 187, methyl 2-[5-[5-[(1R)-1-(3,5-dimethylpyridazin-4-yl)ethoxy]-1H-indazol-3-yl]-2-pyridyl]-2,8-diazaspiro[3.5]nonane-8-carboxylate] | 1 to 20 | 1 to 20 | 1 to 20 | 1 to 20 | 1 to 20
4 | Cc1cnnc(C)c1[C@@H](C)Oc1ccc2[nH]nc(-c3ccc(N4CC5(CCCN(S(C)(=O)=O)C5)C4)nc3)c2c1 [Example 188, 5-[(1R)-1-(3,5-dimethylpyridazin-4-yl)ethoxy]-3-[6-(8-methylsulfonyl-2,8-diazaspiro[3.5]nonan-2-yl)-3-pyridyl]-1H-indazole] | 20 to 100 | 1 to 20 | 1 to 20 | 1 to 20 | 1 to 20
5 | Cc1cnnc(C)c1[C@@H](C)Oc1ccc2[nH]nc(-c3ccc(N4CC5(CCCN(C(=O)OC(C)C)C5)C4)nc3)c2c1 [Example 189, isopropyl 2-[5-[5-[(1R)-1-(3,5-dimethylpyridazin-4-yl)ethoxy]-1H-indazol-3-yl]-2-pyridyl]-2,8-diazaspiro[3.5]nonane-8-carboxylate] | 20 to 100 | 1 to 20 | 1 to 20 | 1 to 20 | 1 to 20
6 | COc1cc2[nH]nc(-c3ccc(N4CC5(C4)CN(S(C)(=O)=O)C5)nc3)c2cc1O[C@@H](C)c1c(C)cnnc1C [Example 192, 5-[(1S)-1-(3,5-dimethylpyridazin-4-yl)ethoxy]-6-methoxy-3-[6-(2-methylsulfonyl-2,6-diazaspiro[3.3]heptan-6-yl)-3-pyridyl]-1H-indazole] | 100 to 300 | 100 to 300 | 1 to 20 | 1 to 20 | 20 to 100
7 | COc1cc2[nH]nc(-c3ccc(N4CC5(C4)CN(S(C)(=O)=O)C5)nc3)c2cc1O[C@H](C)c1c(C)cnnc1C [Example 194, 5-[(1R)-1-(3,5-dimethylpyridazin-4-yl)ethoxy]-6-methoxy-3-[6-(2-methylsulfonyl-2,6-diazaspiro[3.3]heptan-6-yl)-3-pyridyl]-1H-indazole] | 1 to 20 | 1 to 20 | 1 to 20 | 1 to 20 | 1 to 20
8 | COC(=O)N1CC2(C1)CN(c1ccc(-c3n[nH]c4ccc(O[C@@H](C)c5c(Cl)cnc(F)c5Cl)cc34)cn1)C2 [Example 198, methyl 6-[5-[5-[(1S)-1-(3,5-dichloro-2-fluoro-4-pyridyl)ethoxy]-1H-indazol-3-yl]-2-pyridyl]-2,6-diazaspiro[3.3]heptane-2-carboxylate] | > 300 | > 300 | 100 to 300 | 20 to 100 | > 300
9 | COc1c(O[C@H](C)c2c(C)cnnc2C)ccc2[nH]nc(-c3ccc(N4CC5(C4)CN(S(C)(=O)=O)C5)nc3)c12 [Example 200, 5-[(1R)-1-(3,5-dimethylpyridazin-4-yl)ethoxy]-4-methoxy-3-[6-(2-methylsulfonyl-2,6-diazaspiro[3.3]heptan-6-yl)-3-pyridyl]-1H-indazole] | > 300 | > 300 | > 300 | 100 to 300 | > 300
10 | Cc1ncc(Cl)c([C@@H](C)Oc2ccc3[nH]nc(-c4ccc(N5CC6(COC6)C5)nc4)c3c2)c1Cl [Example 201, 6-[5-[5-[(1R)-1-(3,5-dichloro-2-methyl-4-pyridyl)ethoxy]-1H-indazol-3-yl]-2-pyridyl]-2-oxa-6-azaspiro[3.3]heptane] | 20 to 100 | 1 to 20 | 1 to 20 | 1 to 20 | 1 to 20
11 | C[C@@H](Oc1ccc2[nH]nc(-c3ccc(N4CC5(COC5)C4)nc3)c2c1)c1c(Cl)cnc(F)c1Cl [Example 203, 6-[5-[5-[(1R)-1-(3,5-dichloro-2-fluoro-4-pyridyl)ethoxy]-1H-indazol-3-yl]-2-pyridyl]-2-oxa-6-azaspiro[3.3]heptane] | 20 to 100 | 1 to 20 | 1 to 20 | 1 to 20 | 1 to 20

More lines, now with the values ahead:

Row | Kd (FGFR1) [nM] | Kd (FGFR4) [nM] | Kd (FGFR3) [nM] | Kd (FGFR3 (V555M)) [nM] | Kd (FGFR2) [nM] | Compound
12 | 1 to 20 | 1 to 20 | 1 to 20 | 1 to 20 | 1 to 20 | C[C@@H](Oc1ccc2[nH]nc(-c3ccc(N4CCN5CCC[C@@H]5C4)nc3)c2c1)c1c(Cl)cncc1Cl [Example 184, 3-[6-[(8aR)-3,4,6,7,8,8a-hexahydro-1H-pyrrolo[1,2-a]pyrazin-2-yl]-3-pyridyl]-5-[(1R)-1-(3,5-dichloro-4-pyridyl)ethoxy]-1H-indazole]
13 | 100 to 300 | 20 to 100 | 1 to 20 | 1 to 20 | 100 to 300 | CCOC(=O)N1CC2(C1)CN(c1ccc(-c3n[nH]c4ccc(O[C@H](C)c5c(Cl)cnc(C)c5Cl)cc34)cn1)C2 [Example 190, ethyl 6-[5-[5-[(1R)-1-(3,5-dichloro-2-methyl-4-pyridyl)ethoxy]-1H-indazol-3-yl]-2-pyridyl]-2,6-diazaspiro[3.3]heptane-2-carboxylate]
14 | 1 to 20 | 1 to 20 | 1 to 20 | 1 to 20 | 1 to 20 | COc1cc2[nH]nc(-c3ccc(N4CC5(C4)CN(S(C)(=O)=O)C5)nc3)c2cc1O[C@H](C)c1c(Cl)cncc1Cl [Example 191, 5-[(1R)-1-(3,5-dichloro-4-pyridyl)ethoxy]-6-methoxy-3-[6-(2-methylsulfonyl-2,6-diazaspiro[3.3]heptan-6-yl)-3-pyridyl]-1H-indazole]
15 | > 300 | > 300 | > 300 | 100 to 300 | > 300 | CCOC(=O)N1CC2(C1)CN(c1ccc(-c3n[nH]c4ccc(O[C@@H](C)c5c(Cl)cnc(F)c5Cl)cc34)cn1)C2 [Example 193, Ethyl 6-[5-[5-[(1S)-1-(3,5-dichloro-2-fluoro-4-pyridyl)ethoxy]-1H-indazol-3-yl]-2-pyridyl]-2,6-diazaspiro[3.3]heptane-2-carboxylate]
16 | 100 to 300 | 20 to 100 | 1 to 20 | 1 to 20 | 20 to 100 | COC(=O)N1CC2(C1)CN(c1ccc(-c3n[nH]c4ccc(O[C@H](C)c5c(Cl)cnc(F)c5Cl)cc34)cn1)C2 [Example 195, methyl 6-[5-[5-[(1R)-1-(3,5-dichloro-2-fluoro-4-pyridyl)ethoxy]-1H-indazol-3-yl]-2-pyridyl]-2,6-diazaspiro[3.3]heptane-2-carboxylate]
17 | 100 to 300 | 20 to 100 | 1 to 20 | 1 to 20 | 100 to 300 | CCOC(=O)N1CC2(C1)CN(c1ccc(-c3n[nH]c4ccc(O[C@H](C)c5c(Cl)cnc(F)c5Cl)cc34)cn1)C2 [Example 196, ethyl 6-[5-[5-[(1R)-1-(3,5-dichloro-2-fluoro-4-pyridyl)ethoxy]-1H-indazol-3-yl]-2-pyridyl]-2,6-diazaspiro[3.3]heptane-2-carboxylate]
18 | 20 to 100 | 1 to 20 | 1 to 20 | 1 to 20 | 20 to 100 | C[C@@H](Oc1ccc2[nH]nc(-c3ccc(N4CC5(C4)CN(S(C)(=O)=O)C5)nc3)c2c1)c1c(Cl)cnc(F)c1Cl [Example 197, 5-[(1R)-1-(3,5-dichloro-2-fluoro-4-pyridyl)ethoxy]-3-[6-(2-methylsulfonyl-2,6-diazaspiro[3.3]heptan-6-yl)-3-pyridyl]-1H-indazole]
19 | > 300 | > 300 | 100 to 300 | 20 to 100 | > 300 | C[C@H](Oc1ccc2[nH]nc(-c3ccc(N4CC5(C4)CN(S(C)(=O)=O)C5)nc3)c2c1)c1c(Cl)cnc(F)c1Cl [Example 199, 5-[(1S)-1-(3,5-dichloro-2-fluoro-4-pyridyl)ethoxy]-3-[6-(2-methylsulfonyl-2,6-diazaspiro[3.3]heptan-6-yl)-3-pyridyl]-1H-indazole]
20 | 1 to 20 | 1 to 20 | 1 to 20 | 1 to 20 | 1 to 20 | COc1cc2[nH]nc(-c3ccc(N4CC5(COC5)C4)nc3)c2cc1O[C@H](C)c1c(C)cnnc1C [Example 202, 6-[5-[5-[(1R)-1-(3,5-dimethylpyridazin-4-yl)ethoxy]-6-methoxy-1H-indazol-3-yl]-2-pyridyl]-2-oxa-6-azaspiro[3.3]heptane]

Source: patent publication US20240109865A1, “INDAZOLE COMPOUNDS AS KINASE INHIBITORS” (TYRA BIOSCIENCES, INC., priority 2020, published 2024)
